Tested on: C. auris (B11220)
Experiment: MIC dose-response assay in YPD
Format: cell-based
Details: Candidozyma auris
Procedure: We tested the effects of 4456dh on live cells by determining the minimal inhibitory concentration causing 80% growth reduction (MIC80). Wild-type (WT) C. albicans and C. auris cells were incubated with 4456dh in yeast-peptone-dextrose (YPD) medium at 42°C and 39°C, respectively (Fig. 4A). […] 4456dh inhibited the growth of C. auris with an MIC80 of 7 mM at 39°C (Fig. 4A). The MIC80 increased at 30°C to greater than 13 mM (Fig. S7A).
Fig 4 4456dh inhibits the growth of Candida and Cryptococcus species. Two-fold dose response assays were performed against (A) C. albicans at 42°C and C. auris at 39°C, (B) C. glabrata at 42°C, and (C) C. neoformans, C. deneoformans, and C. gattii at 37°C. 4456dh was administered at the concentrations indicated. Cultures were grown in YPD at the listed temperatures for 48 hours for Candida species and 72 hours for Cryptococcus species. Experimental temperatures reflect the temperatures at which the fungi experience heat stress. Left: relative growth of treated samples was calculated by averaging technical triplicates and normalizing the OD600 of each treated well to the average OD600 of the untreated WT controls, after the absorbance due to the compound was subtracted. The MIC80 values, calculated based on the OD600 values, are indicated in the white text on each heat map. […]
102 determined by identifying the inflection point of the derivative data. […]
104 The catalytic activity of C. albicans Tps1 and C. neoformans Tps1 was measured via a continuous […]
110 bottomed 96-well microtiter plates and the decrease in absorbance at 340 nm during the initial
111 reaction rate was recorded using a plate reader (Tecan). The decrease in absorbance was
112 analyzed for the first 200s of the kinetic reaction. […]
116 the overnight cultures was quantified by measuring the OD600 and corrected for the background
117 absorbance of the medium. Antifungal potency for 4456dh was assessed by minimum inhibitory […]
124 technical replicates. Growth, as determined by a reading of absorbance at 600 nm, was
125 normalized to untreated controls and was corrected for the absorbance of 4456dh in the YPD […]

## Cn1cc(-c2csc(NC(=O)Cc3ccccn3)n2)cn1 [Compound 4456dh]
30°C, YPD
  MIC80: > 13 mM
39°C, YPD, 48 hours
  MIC80: 7 mM
Supplemental Table 5, This publication
  MIC80: 2780 µg/mL

Source: publication PMC12505902, “Inhibitors of trehalose-6-phosphate synthase activity in fungal pathogens compromise thermal tolerance pathways” (mBio, 2025)
